Key:
[1] = test system: A2780cis (ovarian, acquired resistance to cisplatin); test: MTT cytotoxicity assay; assay type: cell-based, human; settings: 48 h; for IC50: A2780cis
Protocol: (§1) Cell culture. Epithelial ovarian carcinoma cells (A2780) that acquired resistance to cisplatin epithelial ovarian carcinoma cells (A2780cis), colon adenocarcinoma cells (SW480) and epithelial lung adenocarcinoma cells (A549) were provided by Sigma Aldrich. A549 and SW480 cells were grown in Dulbecco′s Modified Eagle′s Medium (DMEM), supplemented with 10% Fetal Bovine Serum (FBS) and 1% penicillin, streptomycin and 1% glutamine for A549 and 1% amphotericin B for SW480. The A2780 and A2780cis were grown in RPMI 1640 supplemented with 10% Fetal Bovine Serum (FBS), 1% glutamine and 1% penicillin, streptomycin and amphotericin B. All cells were incubated in a humidified incubator at 37 °C under a 5% CO2 atmosphere and grown in 100 mm culture dishes to approximately 70–80% confluence. For subculturing, cells were detached with Trypsin-EDTA (Sigma). A549-gal were derived from A549 cultured in glucose-free medium supplemented with 10 mM galactose (Sigma) for at least 10 passes.
(§2) Cytotoxicity. MTT Assay and IC50 estimation. The cytotoxicity of 1[C,NH-Cl], 2[C,NMe-Cl], 3[N,NH-Cl]Cl, 4[N,NMe-Cl]Cl, 5[CNH2,NH-Cl]Cl, 6[CNH2,S-Cl]Cl, 7[CO,NH-Cl] and 8[CO,S-Cl] in A2780, A2780cis, SW480 and A549 carcinoma cells was evaluated by the MTT colorimetric assay. Cells were seeded in 96-well plates at 5000 cells per well and incubated at 37 °C, 5% CO2. After 24 h, the medium was removed and replaced with fresh medium with different concentrations of the compounds under study, and they were incubated for 48 h. Final DMSO concentration was kept below 0.7% in wells. For a negative control, one sequence of cells was left untreated and for vehicle control, cells treated with DMSO were included. For cell viability experiments preincubating with NAC (N-Acetyl-L-Cysteine), the cells were pre-treated with NAC, 10 mM for 2 h before the incubation with complex 1[C,NH-Cl] for 24 h. Then, the medium was removed from the wells, and 100 µL MTT (5 mg/mL) was added. After an incubation time of 4 h, 100 μL of solubilizing detergent solution (SDS, 10% in HCL 0.01 M) was added and kept in the incubator overnight. Cell growth inhibition was detected by measuring the absorbance of each well at 595 nm using a BioTek Cytation5 microplate reader. Each test was repeated in quadruplicate in three independent experiments for each cell line. The percentage of survival cells was calculated using absorbance measurements compared with control and the IC50 estimation using Graph Pad Prism version 6.01.

[2] = test system: SW480 (colon adenocarcinoma cells); test: MTT cytotoxicity assay; assay type: cell-based, human; settings: SW480, 48 h
Protocol: as §1, §2

[3] = test system: A2780 (epithelial ovarian carcinoma cells); test: MTT cytotoxicity assay; assay type: cell-based, human; settings: A2780, 48 h
Protocol: as §1, §2

[4] = test system: A549 (epithelial lung adenocarcinoma cells); test: MTT cytotoxicity assay; assay type: cell-based, human; settings: A549, 48 h
Protocol: as §1, §2

BSA = target: T1, BSA (Bos taurus, UniProt P02769); test: Native PAGE of BSA with iridium complexes; assay type: binding, bovine; settings: BSA 3 µM, CD/CP = 10, overnight
T1 construct: purchased Merck Life Science S.L.U., Madrid, Spain
T1 sequence (P02769 25-607): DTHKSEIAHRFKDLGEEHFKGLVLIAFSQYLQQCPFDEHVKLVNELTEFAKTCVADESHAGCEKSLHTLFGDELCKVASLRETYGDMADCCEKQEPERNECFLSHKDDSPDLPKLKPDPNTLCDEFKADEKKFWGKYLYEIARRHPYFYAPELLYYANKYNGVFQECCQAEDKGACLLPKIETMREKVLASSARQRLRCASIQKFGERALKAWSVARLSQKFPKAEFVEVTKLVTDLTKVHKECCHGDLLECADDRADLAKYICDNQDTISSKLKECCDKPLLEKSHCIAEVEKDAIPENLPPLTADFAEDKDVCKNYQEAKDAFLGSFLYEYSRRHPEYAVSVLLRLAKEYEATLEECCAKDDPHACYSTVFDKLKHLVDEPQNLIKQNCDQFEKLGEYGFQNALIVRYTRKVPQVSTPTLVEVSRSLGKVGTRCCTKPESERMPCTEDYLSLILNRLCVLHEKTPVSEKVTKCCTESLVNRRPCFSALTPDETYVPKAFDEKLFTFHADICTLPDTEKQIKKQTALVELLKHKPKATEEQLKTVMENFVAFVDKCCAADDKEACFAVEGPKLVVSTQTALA
Protocol: Native protein electrophoresis. The interaction between BSA and iridium complexes was studied using native polyacrylamide gel electrophoresis (PAGE). The BSA concentration was 3 µM and the CD/CP ratio was 10. The samples of BSA/Ir-complexes were incubated overnight. The samples were mixed with a sample buffer (glycerol and bromophenol) and loaded into a 10% polyacrylamide gel for PAGE analysis (BioRad electrophoresis accessories). The gel was run at 80 V for 3 h, and then it was stained and destained before the gel was imaged using BioRad Gel Doc XR+ molecular imager. The staining solution contains 45% MeOH, 10% glacial acetic acid, 45% H2O and 0.1% brilliant blue, whereas the destaining solution consists of 20% MeOH, 10% glacial acetic acid and 70% H2O.

Calf thymus DNA = test: DNA melting temperature (DSC); assay type: binding; settings: as a function of CD/CP, overnight incubation
Protocol: Differential scanning calorimetry (DSC) studies were performed in a nano DSC (TA Instruments, Newcastle, USA) to determine the melting temperature of DNA in the absence and in the presence of different amount of the Ir(III) complexes. Cells were 300 μL platinum capillary tubes. Measurements were performed by heating the dye/polynucleotide system from 20 to 90 °C, at 1 °C/min scan rate and 3 atm pressure. To reduce the formation of bubbles upon heating to a minimum, the reference and the sample solutions were previously degassed for 30 min in a degassing station (TA Instruments, Newcastle, USA). The thermograms recorded were analysed with the NanoAnalyze 2.0 software. The buffer–buffer baseline was run at least five heating/cooling cycles until the heating was reproducible, and then, it was subtracted from the sample data.

SMILES | IC50 [1] | IC50 [2] | IC50 [3] | IC50 [4] | Interaction with BSA (BSA) | ∆Tm of DNA (Calf thymus DNA) | Resistance Factor (RF) IC50,A2780CIS/IC50,A2780 [1]
Cc1c(C)c(C)[c-](C)c1C.[Cl-].[Cl][Ir]1[NH2+]c2ccccc2-c2sc3ccccc3[n+]21 [6[CNH2,S], [(η^5-Cp*)IrCl(κ^2-N,N-apbtz)]Cl] | 48 ± 2 µM | 40 ± 1 µM | > 100 µM | > 100 µM | do not interact with the protein | +21 oC | 
Cc1c(C)c(C)[c-](C)c1C.[Cl-].[Cl][Ir]1[n+]2ccccc2-c2[nH]c3ccccc3[n+]21 [3[N,NH], [(η^5-Cp*)IrCl(κ^2-N,N-pybim)]Cl] | 48 ± 1 µM | 90 ± 1 µM | 84 ± 1 µM | > 100 µM | interactions | -35 oC | 
Cc1c(C)c(C)[c-](C)c1C.[Cl][Ir]1[O]c2ccccc2-c2sc3ccccc3[n+]21 [8[CO,S], [(η^5-Cp*)IrCl(κ^2-O,N-hpbtz)]] | 6 ± 2 µM | 34 ± 1 µM | 2 ± 1 µM | 41 ± 5 µM | interacts with BSA | 0 oC | > 2
Cc1c(C)c(C)[c-](C)c1C.Cn1c2[n+](c3ccccc31)[Ir]([Cl])[n+]1ccccc1-2.[Cl-] [4[N,NMe], [(η^5-Cp*)IrCl(κ^2-N,N-pyMebim)]Cl] | > 100 µM | > 100 µM | > 100 µM | > 100 µM | interactions | -14 oC | 
Cc1c(C)c(C)[c-](C)c1C.[Cl-].[Cl][Ir]1[NH2+]c2ccccc2-c2[nH]c3ccccc3[n+]21 [5[CNH2,NH], [(η^5-Cp*)IrCl(κ^2-N,N-apbim)]Cl] | 30 ± 1 µM | 34 ± 1 µM | 17 ± 1 µM | > 100 µM | do not interact with the protein | +5 oC | 
Cc1c(C)c(C)[c-](C)c1C.[Cl][Ir]1[c]2ccccc2-c2[nH]c3ccccc3[n+]21 [1[C,NH], [(η^5-Cp*)IrCl(κ^2-N,C-pbim)]] | 5 ± 1 µM | 5 ± 2 µM | 5 ± 2 µM | 10 ± 1 µM | do not interact with the protein | 0 oC | no cross-resistance
Cc1c(C)c(C)[c-](C)c1C.Cn1c2[n+](c3ccccc31)[Ir]([Cl])[c]1ccccc1-2 [2[C,NMe], [(η^5-Cp*)IrCl(κ^2-N,C-NMepbim)]] | 13 ± 1 µM |  | 9 ± 1 µM | 10 ± 1 µM | do not interact with the protein | 0 oC | no cross-resistance
Cc1c(C)c(C)[c-](C)c1C.[Cl][Ir]1[O]c2ccccc2-c2[nH]c3ccccc3[n+]21 [7[CO,NH], [(η^5-Cp*)IrCl(κ^2-O,N-hpbim)]] | 42 ± 1 µM | > 100 µM | 14 ± 1 µM | 43 ± 3 µM | interactions | 0 oC | > 2
